In US20240352010A1, “SUBSTITUTED 1,2,4-THIADIAZOLYL NICOTINAMIDES, SALTS OR N-OXIDES THEREOF AND THEIR USE AS HERBICIDALLY ACTIVE SUBSTANCES” (BayerAktiengesellschaft, priority 2021, published 2024):

Legend:
Type in all cases: in vivo
[1] = test system: Poa annua (POAAN); experiment: Herbicidal post-emergence action, POAAN; settings: 1280 g/ha, assessed visually after ca. 3 weeks vs untreated controls (Table B8)
Text: (§1) Seeds of mono- and dicotyledonous weed plants were sown in plastic pots (double sowings with one species of mono- and one species of dicotyledonous weed plants per pot), in sandy loam, covered with soil and grown under controlled growth conditions. 2 to 3 weeks after sowing, the test plants were sprayed in the single-leaf stage. The compounds according to the invention, formulated in the form of wettable powders (WP) or as emulsifiable concentrates (EC), were sprayed onto the green plant parts as an aqueous suspension or as an emulsion, with the addition of 0.5% of an additive, at an application rate of 600 litres of water per hectare (converted). The test plants were placed in the greenhouse for ca. 3 weeks under optimum growth conditions, and then the effect of the preparations is assessed visually in comparison with untreated controls (herbicidal effect in percent (%): 100% effect=plants have died, 0% effect=as control plants). […]

[2] = test system: Matricaria inodora (MATIN); experiment: Herbicidal pre-emergence action, MATIN
Text: (§2) Seeds of mono- and dicotyledonous weed plants were sown in plastic pots (double sowings with one species of mono- and one species of dicotyledonous weed plants per pot), in sandy loam, and covered with soil. The compounds according to the invention, formulated in the form of wettable powders (WP) or as emulsifiable concentrates (EC), were applied to the surface of the covering soil as an aqueous suspension or as an emulsion, with the addition of 0.5% of an additive, at an application rate of 600 litres of water per hectare (converted). Following treatment, the pots were placed in a greenhouse and kept under optimum growth conditions for the test plants. The visual grading of the damage to the test plants is carried out after ca. 3 weeks in comparison to untreated controls (herbicidal effect in percent (%): 100% effect=plants have died, 0% effect=as control plants). Seeds of mono- and dicotyledonous weed plants were sown in plastic pots (double sowings with one species of mono- and one species of dicotyledonous weed plants per pot), in sandy loam, and covered with soil. The compounds according to the invention, formulated in the form of wettable powders (WP) or as emulsifiable concentrates (EC), were applied to the surface of the covering soil as an aqueous suspension or as an emulsion, with the addition of 0.5% of an additive, at an application rate of 600 litres of water per hectare (converted). Following treatment, the pots were placed in a greenhouse and kept under optimum growth conditions for the test plants. The visual grading of the damage to the test plants is carried out after ca. 3 weeks in comparison to untreated controls (herbicidal effect in percent (%): 100% effect=plants have died, 0% effect=as control plants).

[3] = test system: Stellaria media (STEME); experiment: Herbicidal pre-emergence action, STEME
Text: as §2

[4] = test system: Digitaria sanguinalis (DIGSA); experiment: Herbicidal post-emergence action, DIGSA; settings: 1280 g/ha, assessed visually after ca. 3 weeks vs untreated controls (Table B12)
Text: (§3) Seeds of mono- and dicotyledonous weed plants were sown in plastic pots (double sowings with one species of mono- and one species of dicotyledonous weed plants per pot), in sandy loam, covered with soil and grown under controlled growth conditions. 2 to 3 weeks after sowing, the test plants were sprayed in the single-leaf stage. The compounds according to the invention, formulated in the form of wettable powders (WP) or as emulsifiable concentrates (EC), were sprayed onto the green plant parts as an aqueous suspension or as an emulsion, with the addition of 0.5% of an additive, at an application rate of 600 litres of water per hectare (converted). The test plants were placed in the greenhouse for ca. 3 weeks under optimum growth conditions, and then the effect of the preparations is assessed visually in comparison with untreated controls (herbicidal effect in percent (%): 100% effect=plants have died, 0% effect=as control plants).

[5] = test system: Stellaria media (STEME); experiment: Herbicidal post-emergence action, STEME
Text: as §1

[6] = test system: Kochia scoparia (KCHSC); experiment: Herbicidal post-emergence action, KCHSC
Text: as §1

[7] = test system: Amaranthus retroflexus (AMARE); experiment: Herbicidal post-emergence action, AMARE
Text: as §1

[8] = test system: Veronica persica (VERPE); experiment: Herbicidal post-emergence action, VERPE; settings: 1280 g/ha, assessed visually after ca. 3 weeks vs untreated controls (Table B10)
Text: as §1

[9] = test system: Setaria viridis (SETVI); experiment: Herbicidal pre-emergence action, SETVI; settings: 1280 g/ha, visual grading after ca. 3 weeks vs untreated controls (Table A8)
Text: as §2

[10] = test system: Kochia scoparia (KCHSC); experiment: Herbicidal pre-emergence action, KCHSC; settings: 1280 g/ha, visual grading after ca. 3 weeks vs untreated controls (Table A4)
Text: as §2

[11] = test system: Poa annua (POAAN); experiment: Herbicidal pre-emergence action, POAAN
Text: as §2

[12] = test system: Abutilon theophrasti (ABUTH); experiment: Herbicidal post-emergence action, ABUTH; settings: 1280 g/ha, assessed visually after ca. 3 weeks vs untreated controls (Table B1)
Text: as §3

[13] = test system: Amaranthus retroflexus (AMARE); experiment: Herbicidal pre-emergence action, AMARE; settings: 1280 g/ha, visual grading after ca. 3 weeks vs untreated controls (Table A11)
Text: as §2

[14] = test system: Lolium rigidum (LOLRI); experiment: Herbicidal pre-emergence action, LOLRI
Text: as §2

O=C(Nc1ncns1)c1c(C2CC2)ccnc1C(F)(F)F [Example I-006]
herbicidal effect in percent, POAAN [1]: 90%
herbicidal effect in percent, MATIN ([2]; 320 g/ha, visual grading after ca. 3 weeks vs untreated controls (Table C3)): 90%
herbicidal effect in percent, MATIN ([2]; 1280 g/ha, visual grading after ca. 3 weeks vs untreated controls (Table A6)): 100%
herbicidal effect in percent, STEME ([3]; 320 g/ha, visual grading after ca. 3 weeks vs untreated controls (Table C6)): 100%
herbicidal effect in percent, STEME ([3]; 1280 g/ha, visual grading after ca. 3 weeks vs untreated controls (Table A9)): 100%
herbicidal effect in percent, DIGSA [4]: 90%
herbicidal effect in percent, STEME ([5]; 1280 g/ha, assessed visually after ca. 3 weeks vs untreated controls (Table B9)): 100%
herbicidal effect in percent, STEME ([5]; dosage printed 1280 g/ha in Table D4, assessed visually after ca. 3 weeks vs untreated controls): 90%
herbicidal effect in percent, KCHSC ([6]; 1280 g/ha, assessed visually after ca. 3 weeks vs untreated controls (Table B4)): 100%
herbicidal effect in percent, KCHSC ([6]; dosage printed 1280 g/ha in Table D1, assessed visually after ca. 3 weeks vs untreated controls): 90%
herbicidal effect in percent, AMARE ([7]; 320 g/ha, assessed visually after ca. 3 weeks vs untreated controls (Table D6)): 90%
herbicidal effect in percent, AMARE ([7]; 1280 g/ha, assessed visually after ca. 3 weeks vs untreated controls (Table B11)): 100%
herbicidal effect in percent, VERPE [8]: 90%
herbicidal effect in percent, SETVI [9]: 90%
herbicidal effect in percent, KCHSC [10]: 90%
herbicidal effect in percent, POAAN ([11]; 320 g/ha, visual grading after ca. 3 weeks vs untreated controls (Table C4)): 90%
herbicidal effect in percent, POAAN ([11]; 1280 g/ha, visual grading after ca. 3 weeks vs untreated controls (Table A7)): 90%
herbicidal effect in percent, ABUTH [12]: 90%
herbicidal effect in percent, AMARE [13]: 90%
herbicidal effect in percent, LOLRI ([14]; 320 g/ha, visual grading after ca. 3 weeks vs untreated controls (Table C2)): 90%
herbicidal effect in percent, LOLRI ([14]; 1280 g/ha, visual grading after ca. 3 weeks vs untreated controls (Table A5)): 90%
